From BigSolDB 2.1

Settings: in isobutyl acetate

O=C(O)c1ccc(C(=O)O)cc1
Settings	solubility (mole fraction)
305.15 K	2.38e-05
308.15 K	2.57e-05
313.15 K	3.22e-05
318.15 K	3.41e-05
323.15 K	3.86e-05
328.15 K	5.78e-05
333.15 K	7.07e-05
338.15 K	8.25e-05
343.15 K	8.91e-05
348.15 K	0.000104

O=C(O)c1ccccc1
Settings	solubility (mole fraction)
299.73 K	0.14
302.46 K	0.149
307.34 K	0.178
313.61 K	0.208
322.93 K	0.254
328.98 K	0.293
332.24 K	0.311
334.34 K	0.325
335.58 K	0.337
336.03 K	0.338
337.33 K	0.349
337.67 K	0.351
338.76 K	0.358
339.37 K	0.362
339.86 K	0.369
341.48 K	0.379
342.69 K	0.39
343.67 K	0.399

O=C(O)c1cccc(C(=O)O)c1
Settings	solubility (mole fraction)
308.15 K	0.000352
313.15 K	0.000388
318.15 K	0.000438
323.15 K	0.000507
328.15 K	0.000691
333.15 K	0.000917
338.15 K	0.0013
343.15 K	0.00166
348.15 K	0.00201
353.15 K	0.00221

Cc1ccc(C(=O)O)cc1
Settings	solubility (mole fraction)
300.19 K	0.0328
303.04 K	0.0338
306.43 K	0.0356
310.28 K	0.0421
312.7 K	0.0434
315.36 K	0.0475
319.97 K	0.0525
323.16 K	0.0573
324.84 K	0.0612
325.76 K	0.0653
329.67 K	0.0692
332.48 K	0.0735
333.91 K	0.0774
335.96 K	0.0813
337.49 K	0.0848
339.46 K	0.0885
341.07 K	0.0918
342.68 K	0.0954
344.69 K	0.0994
345.82 K	0.103
347.26 K	0.107
348.41 K	0.11

O=C(O)c1ccccc1C(=O)O
Settings	solubility (mole fraction)
300.68 K	0.0011
302.37 K	0.0012
304.42 K	0.0012
309.58 K	0.0016
312.72 K	0.0022
317.36 K	0.0026
326.85 K	0.0032
331.86 K	0.0037
335.27 K	0.005
340.04 K	0.0062
342.69 K	0.0077
348.7 K	0.0092
